# Assay results taken from a melting point compilation (Tetko et al.; mined from patent text by program, amines drawn as free bases though some values may be those of a salt).
row,melting point [°C],Structure (SMILES)
1,248 to 251,Cc1cccc(NC(=O)c2ccc(C(=O)N3Cc4ccccc4Cc4ccccc43)cc2)c1C
2,174,CCC(=O)C1=C(O)CC(c2c(C)cc(C)c([N+](=O)[O-])c2C)CC1=O (centres undefined)
3,194 to 195,COc1ccc(S(=O)(=O)N2CCn3c(c(C(N)=O)c(Cl)c3-c3ccccc3)C2)cc1
4,228 to 231,CCCCCc1cc2c(nc(O)n2CC2CCN(C(C)=O)CC2)c(N)n1
5,137 to 139,Cn1c(-c2ccccc2F)n[nH]c1=S
6,212 to 214,Nc1nc2ccccc2n1-c1ccc(I)cc1
7,228 to 230,CC(C)Cc1nc(N)c(C(=O)c2c[nH]c3ccccc23)[nH]c1=O
8,190,Cc1cccc(NC(=O)NCC(=O)N(CC(=O)N2CCc3ccccc32)c2ccccc2)c1
9,85 to 87,CCOC(=O)CN(C(=O)C(F)(F)F)C(NC(C)C)P(=O)(O)OSCC (centres undefined)
10,198,Cc1cccc(-c2nc(N)ncc2-c2ccc(=O)n(C(C)C)n2)c1
11,65 to 70,CN(C)CCNC(=O)c1cccc(-c2ccnc(C(=O)N(O)Cc3ccccc3)c2)c1
12,170 to 171,COc1cc2c(cc1OC)C1=C(C#N)SC(C)C(=O)N1CC2 (centres undefined)
13,106 to 108,Fc1cc(F)c(-c2c(Cl)nc3nccn3c2N2CCCCCC2)c(F)c1
14,69 to 70,C#CCN(C)c1nc(CO)cs1
15,137,CCCCc1ccc(CN(CCCCCCC(=O)O)S(C)(=O)=O)cc1
16,235 to 236,CCCCc1nc2c(C(N)=O)cccc2n1Cc1ccc(-c2ccccc2-c2nnn[nH]2)cc1
17,55.5 to 58.5,O=C(COCc1ccccc1)Nc1ccc(OC(=O)COCc2ccccc2)cc1
18,159 to 161,Cc1nccn1-c1ccc(-c2cnc([C@H](Cc3ccccn3)N(C=O)c3cc4cc(Cl)ccc4o3)n2C)cc1
19,135 to 136,CN(C)CCC(c1ccccc1)c1ncc[nH]1 (centres undefined)
20,220 to 222,Cc1cc2c(c3ccc(=O)[nH]c13)OC(CNC(=O)C(C)(C)NC(=O)OCc1ccccc1)C2 (centres undefined)
21,156 to 159,CCCCC1(CCCC)CS(=O)(=O)c2ccc(N(C)C)cc2[C@@H](c2ccc(OCc3ccc(C(=O)O)cc3)cc2)[C@H]1O
22,106 to 107,O=C(O)CC(c1ccc(F)cc1)c1ccc(F)cc1
23,123 to 124,O=c1ccn(-c2ccccc2OC(F)F)nc1-c1ccnn1-c1ccccc1
24,119,COc1ccc(C(=O)Nc2ccc3ccc(C)nc3n2)cc1

row,melting point [°C],Structure (SMILES)
1,242 to 250,CC(C)C(C)NC1=NS(=O)(=O)c2cc(Cl)c(Cl)cc2N1 (centres undefined)
2,132 to 134,CC(C)Oc1cc(CCC(=O)NS(=O)(=O)CCCc2ccccc2)n(Cc2ccc(Cl)cc2Cl)n1
3,199 to 201,CC(=O)Oc1ccc(NC(C)=C2C(=O)OC(=O)C(C(C)=O)=C2O)cc1
4,123 to 125,CCOP(=O)(OCC)c1c(-c2c(OC)ccc3ccccc23)cc2c(c1-c1ccccc1)COC2
5,179 to 180,COc1nc(N)nc2c1ncn2/C=C1\CC1(CO)CO
6,102,CC1(COCCCOc2ccc(C(=O)O)cc2)COC1
7,191 to 192,CC(=O)Nc1nc(C=O)c(Cc2ccccc2)s1
8,203,CC(C)(C)OC(=O)NCCCCC(=O)Nc1cc(C(=O)O)ccc1Cl
9,253 to 254,COc1ccc(/C=C/c2nc3c(c(=O)n(C)c(=O)n3C)n2C)c(OC)c1C
10,135,Cc1cccc(NC(=O)NCC(=O)N(CC(=O)N2CCc3ccccc3C2)c2ccccc2)c1
11,146 to 147,COc1ccc(-c2ccc(C#N)cc2)cc1C=O
12,73 to 75,CC(O)(c1nc2ccc([N+](=O)[O-])cc2[nH]1)C(F)(F)F (centres undefined)
13,70 to 73,CC(C)(c1ccccc1)C(S)C(=O)O (centres undefined)
14,56,COc1ccc(CNc2ncc3c(n2)N(c2ccccc2)C(=O)N(c2c(Cl)cccc2Cl)C3)cc1
15,238,CC(C)C(=O)Nc1ccc(C(=O)Nc2ccccc2[N+](=O)[O-])cc1
16,92 to 94,COc1c(Nc2ncc(Cl)c(N[C@@H]3CCCC[C@H]3NS(C)(=O)=O)n2)ccc2c1CCCC(NCCO)C2 (some centres undefined)
17,200 to 202,COc1ccc(-c2c(Cl)c(CN3C(=O)CCC3=O)nc3sc4c(c23)CC(C)(C)C(=O)C4(F)F)cc1
18,280 to 282,O=C(c1ccccc1)N1CC=C(c2c[nH]c3ccc([N+](=O)[O-])cc23)CC1
19,83.5,CCCCC[C@H]1CC[C@H](c2cnc(C#N)nc2)CC1
20,115 to 116,CCOP(=O)(CSCCOn1cnc2c(N3C(=O)c4ccccc4C3=O)ncnc21)OCC
21,338 to 340,Cc1ncc(-c2ccc3[nH]c4c(cc(-c5ccc(Cl)cc5Cl)c(=O)n4C)c3c2)o1
22,97,CCOC(=O)c1cc([N+](=O)[O-])ccc1O
23,109 to 112,CCc1nc2c(cnn2CC)c(NC2CCOCC2)c1CNC(=O)c1cccc(C(=O)NCc2cc(Cl)cc(Br)c2)c1
24,109 to 110,Cc1ccccc1N1CCc2cnc3c(C)cccc3c21

row,melting point [°C],Structure (SMILES)
1,283 to 286,CC(C)(C)OC(=O)N1CCC(C(=O)N2CCc3ccc4[nH]c(=O)c(=O)[nH]c4c3C2)CC1
2,154 to 155,CC(C)c1nnn(-c2c(Cl)cccc2Cl)c1CO
3,105,COC(=O)c1cc(Cl)cc(OC)c1O
4,247,O=C(NC1CC1)c1cc(Nc2nc(Cl)nc3ccoc23)[nH]n1
5,122 to 123,CCc1cccc(CSC)c1NC(=O)CC1c2ccccc2Oc2ccccc21
6,99 to 100,O=C1NC(=O)C(Sc2ccc(F)cc2)S1 (centres undefined)
7,60 to 62,Cc1cccc(-c2ccc(OS(=O)(=O)C(F)(F)F)cc2C=O)c1
8,167 to 168,Cc1nc(N2CCN(Cc3ccccc3)C2=O)sc1C(=O)NCc1ccccc1F
9,195 to 196,COc1ccc(-c2cc3cc(F)c(F)cc3[nH]2)cc1NCc1ccc(O)c([N+](=O)[O-])c1
10,178 to 180,CCOC(=O)C(=O)Nc1ccc(NC(=O)C(=O)OCC)nc1
11,252,O=C(O)Cc1ccc(NC(=O)c2ccc(Cl)cc2)cc1
12,238,CC(=O)OCC(=O)C1C(C)CC2C3CC(Cl)C4=CC(=O)C=CC4(C)C3(Cl)C(O)CC21C (centres undefined)
13,150 to 152,CON(Cc1ccc(C)cc1)C(=O)C1=C(O)C(=O)N(C)C1
14,> 290,Oc1cc(O)nc(C2CC2)n1
15,189 to 191,CN1C(C)(C)CC(OC(=O)NNC(=O)OC2CC(C)(C)N(C)C(C)(C)C2)CC1(C)C
16,99 to 101,CCOc1ccc(Oc2ccc(CNC(=O)c3sc(C)nc3C)cc2)cc1
17,128 to 129,CCOCc1nc2c(N)nc3ccccc3c2n1CCCCC(=O)N1CCOCC1
18,125 to 126,COc1cc2c(cc1OCc1ccccc1)CCN(C(C)=O)C2
19,183 to 186,c1cc2c3c(ccc2[nH]1)NCC3
20,100 to 102,CCC(CC)c1nc(-c2ccncc2)c(-c2ccc(Cl)cc2)n1C
21,161 to 163,CCOC(=O)/C(F)=C/c1ccc(N2C[C@H](CNC(C)=O)OC2=O)cc1
22,130 to 131,Cc1oc(-c2ccco2)nc1COc1ccc(COc2nn(Cc3ccccc3)cc2C=O)cc1OCc1ccccc1
23,190 to 193,CC(C)S(=O)(=O)NC(=O)c1cccc(N)c1
24,89 to 91,CC(=O)OCCN1CCNC1=Nc1ccccc1N1CCOCC1

row,melting point [°C],Structure (SMILES)
1,166 to 168,CCOCc1nc2c(N)nc3cc(S(C)(=O)=O)ccc3c2n1CCCOC
2,117 to 118,Cn1c(C(F)(F)F)ccc(-c2cc(CBr)c(Cl)cc2F)c1=O
3,123 to 125,COC(=O)c1ccc(OC(=O)c2ccccc2C(=O)Oc2ccc(C(=O)OC)cc2)cc1
4,74,CCOC(=O)COC(=O)c1cccnc1C#N
5,160 to 162,CCOC(=O)CC(O)CC(O)C=CC(=C(c1ccc(F)cc1)c1ccc(F)cc1)n1nnnc1-c1ccccc1 (centres undefined)
6,360,N#Cc1ccc2[nH]c3ccc(C#N)cc3c2c1
7,109 to 110,COc1cccc(C(=O)C(=NN)c2cccc(OC)c2)c1
8,108,CC(C)C[C@H]1[C@@H](O)C(=O)N1C(=O)OC(C)(C)C
9,235 to 237,CC1=C(C(=O)OCCCl)C(c2cccc3c(=O)c(C)c(-c4ccccc4)oc23)C(C(=O)OC(C)C)=C(C)N1 (centres undefined)
10,77 to 79,CC(=O)Cc1ccc2oc(C(=O)O)c(C)c2c1
11,162 to 164,O=C(NCC1CCCC1)NCC1CCCC1
12,226 to 228,CC(C)n1nc(-c2sc(Nc3cccnc3)nc2-c2ccccc2)ccc1=O
13,91 to 93,CC(C)(C)C(=O)Oc1ccc(CNC(=O)c2cccnc2Oc2ccc(F)cc2)cc1
14,120 to 121,CC(C)Cn1nc(-c2ccccc2)cc(C(=O)O)c1=O
15,254 to 256,Cc1n[nH]c2ccc(-c3nn(C(C)c4oc5ccccc5c(=O)c4-c4cccc(F)c4)c4ncnc(N)c34)cc12 (centres undefined)
16,101 to 103,N#Cc1ccccc1NC(=O)C(=O)N1CCC(Cc2ccc(F)cc2)CC1
17,85 to 90,Cc1noc(NS(=O)(=O)c2ccccc2-c2ccc(-c3ccon3)cc2)c1C
18,145,OC(CN1CCC(c2c[nH]c3ccccc23)CC1)C1COc2ccccc2O1 (centres undefined)
19,243 to 244,O=C(NCc1ccccc1O)c1[nH]c2ccc(Cl)cc2c1S(=O)(=O)c1ccccc1
20,206 to 208,CN1C(=O)NC2(CCN(C(=O)OC(C)(C)C)CC2)C1=O
21,152 to 153,CCNc1cccnc1N1CCN(C(=O)c2ccc(C(=O)N3CCN(CCO)CC3)cc2)CC1

row,Structure (SMILES),melting point [°C]
1,Cc1nsc(OCC(Cl)(Cl)Cl)c1[N+](=O)[O-],60 to 61
2,Oc1ccc2c(c1)C1CNCC(C2)C1 (centres undefined),215 to 217
3,Nc1nnnc(-c2c[nH]nn2)c1-c1cnnnn1,215
4,CCCCCC(C)C(C)c1cc(O)c2c(c1)OC(C)(C)C1=C2CN(CC(=O)NC(=O)NC)CC1 (centres undefined),145 to 147
5,CN(C)C1(c2ccccc2)CCC(=CC(=O)NCCCc2c[nH]c3ccccc23)CC1 (centres undefined),85 to 87
6,Cc1ccc2nc(CCl)cn2c1,88 to 89.2
